{"source": "patent US10471046B2", "about": "“Method for treating, preventing, or reducing the risk of skin infection” (Melinta Subsidiary Corp., priority 2014, dated 2019)", "key": {"B. fragilis": {"tested_on": "B. fragilis", "experiment": "Broth microdilution MIC", "format": "cell-based", "details": "Bacteroides fragilis, ATCC25285; B. fragilis ATCC 25285"}, "P. granulosum": {"tested_on": "P. granulosum", "experiment": "Broth microdilution MIC", "format": "cell-based"}, "G. vaginalis": {"tested_on": "G. vaginalis", "experiment": "Broth microdilution MIC", "format": "cell-based", "details": "for MIC: Gardnerella vaginalis"}, "Legionella pneumophila": {"tested_on": "Legionella pneumophila", "details": "cited from earlier work"}}}
{"compound": "CC(=O)NC[C@H]1CN(c2ccc(-c3ccc(CNCc4cnn[nH]4)cc3)c(F)c2)C(=O)O1", "note": "[Radezolid, (5S)—N-[3-(2-Fluoro-4′-{[(1H-[1,2,3]triazol-4-ylmethyl)-amino]-methyl}-biphenyl-4-yl)-2-oxo-oxazolidin-5-ylmethyl]-acetamide]", "values": [{"measurement": "MIC", "setting": "B. fragilis", "result": 2, "unit": "µg/mL"}, {"measurement": "broth microdilution, fold more active than linezolid", "setting": "P. granulosum; P. granulosum", "result": 8, "unit": "fold"}, {"measurement": "MIC", "setting": "P. granulosum; P. granulosum ATCC 25746", "result": 0.125, "unit": "µg/mL"}, {"measurement": "broth microdilution, fold more active than linezolid", "setting": "G. vaginalis; G. vaginalis 49145", "result": 8, "unit": "fold"}, {"measurement": "MIC", "setting": "G. vaginalis; ATCC14018, G. vaginalis ATCC 14018", "result": 0.125, "unit": "µg/mL"}, {"measurement": "MIC", "setting": "G. vaginalis; ATCC49145, G. vaginalis ATCC 49145", "result": 0.06, "unit": "µg/mL"}, {"measurement": "intracellular killing", "setting": "Legionella pneumophila", "result": "kills"}]}
